The source of these data is paper PMC11224556, “Next-generation of BBQ analogues that selectively target breast cancer” (Frontiers in Chemistry, 2024).

In this assay the target is T1, AhR (Homo sapiens, UniProt P35869).
T1 construct: This cell line stably expresses the secreted Lucia luciferase reporter gene under the control of a minimal promoter; host or cells: HT29-Lucia AhR reporter cells
T1 sequence (P35869 11-848): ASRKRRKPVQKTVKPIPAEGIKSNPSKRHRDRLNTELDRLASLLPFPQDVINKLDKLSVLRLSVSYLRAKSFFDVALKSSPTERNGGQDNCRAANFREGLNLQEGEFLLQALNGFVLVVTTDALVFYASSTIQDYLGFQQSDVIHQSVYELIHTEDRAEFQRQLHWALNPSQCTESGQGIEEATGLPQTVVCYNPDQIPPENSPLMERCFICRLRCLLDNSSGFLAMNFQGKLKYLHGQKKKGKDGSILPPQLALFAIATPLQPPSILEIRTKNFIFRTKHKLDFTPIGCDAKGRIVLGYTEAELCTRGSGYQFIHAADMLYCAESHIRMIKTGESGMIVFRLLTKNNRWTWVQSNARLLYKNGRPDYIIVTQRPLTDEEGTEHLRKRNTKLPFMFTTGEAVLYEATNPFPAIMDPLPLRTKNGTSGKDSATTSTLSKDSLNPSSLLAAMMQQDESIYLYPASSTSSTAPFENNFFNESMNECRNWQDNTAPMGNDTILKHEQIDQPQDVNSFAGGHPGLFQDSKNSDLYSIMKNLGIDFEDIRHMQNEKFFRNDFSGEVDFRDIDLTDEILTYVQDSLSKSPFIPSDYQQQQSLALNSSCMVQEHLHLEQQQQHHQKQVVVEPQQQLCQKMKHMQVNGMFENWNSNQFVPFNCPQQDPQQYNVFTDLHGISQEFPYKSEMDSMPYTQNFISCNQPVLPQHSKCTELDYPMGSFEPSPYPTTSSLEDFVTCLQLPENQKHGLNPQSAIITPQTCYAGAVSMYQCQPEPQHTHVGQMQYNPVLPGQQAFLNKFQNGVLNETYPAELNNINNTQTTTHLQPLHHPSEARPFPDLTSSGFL
The experiment in a line: AhR transcription reporter assay (HT29-Lucia AhR cells). The format is cell-based. As to conditions: 1 µM, 24 h, relative to DMSO. From the text:
Our previous studies have shown that the activity of NAP-6 (2) and 10-Cl-BBQ (3) required the activation of the AhR pathway and the induction of CYP1 family of phase I metabolising enzymes ([Gilbert et al., 2020]; [Baker et al., 2021a]). Therefore, we sought to determine the activation of AhR using a stable AhR reporter assay in HT29-Lucia™ AhR cells, in the presence of each BBQ analogue (Figure 3). Activation of the AhR was indicated by enhanced luminescence caused by the translocation of the AhR to the nucleus of the cell and interaction with the xenobiotic response elements imbedded in the luciferase gene.
Stock solutions were prepared as follows and stored as 20 mM DMSO solutions at −20 °C. All cell lines were cultured in a humidified atmosphere 5% CO2 at 37 °C. The cancer cell lines were maintained in Dulbecco’s modified Eagle’s medium (DMEM) (Trace Biosciences, Australia) supplemented with 10% foetal bovine serum (FBS), 10 mM sodium bicarbonate, penicillin (100 IU/mL), streptomycin (100 μg/mL), and glutamine (4 mM). The non-cancer MCF10A cell line was cultured in DMEM:F12 (1:1) cell culture media, 5% heat inactivated horse serum, supplemented with penicillin (50 IU/mL), streptomycin (50 μg/mL), 20 mM Hepes, L-glutamine (2 mM), epidermal growth factor (20 ng/mL), hydrocortisone (500 ng/mL), cholera toxin (100 ng/mL), and insulin (10 μg/mL). The AhR reporter cell line HT29-Lucia™ (Invivogen, United States) was maintained in DMEM supplemented with 10% heat inactivated FBS, L-glutamine (2 mM), penicillin (100 IU/mL), streptomycin (100 μg/mL), 100 μg/mL Normocin™, and 100 μg/mL of the selective antibiotic Zeocin™. All cell lines were purchased from the American Type Culture Collection (ATCC), except for A2780 and A431 which were from the European Collection of Authenticated Cell Cultures (ECACC), and SJ-G2 cell line which was from Dr Mary Danks, St Jude Children’s Research hospital, Memphis, TN.
The activity of the AhR signalling pathway was measured using the stably transfected AhR cell line, HT29-Lucia™ (Invivogen, United States). This cell line stably expresses the secreted Lucia luciferase reporter gene under the control of a minimal promoter coupled with the human CYP1A1 gene entire regulatory sequence, containing six DREs. The Lucia luciferase reporter protein is readily measurable in the cell culture supernatant using QUANTI-Luc™. For the determination of AhR activity, 4 × 10^4 cells in 180 μL was plated into each well of a 96 well micro-titre plate in the absence of antibiotics and allowed to culture for 24 h prior to the addition of test compounds in a volume of 20 μL. At the indicated time, 20 μL of cell supernatant was transferred to a white luminometer plate and 50 µL of QUANTI-Luc was added immediately prior to reading the luminescence using a GloMax Explorer Luminescence Plate Reader. The promoter activity was conducted in duplicate and the values expressed as fold-change relative to DMSO (0.1%) treated cells. The AhR ligand, FICZ (6-formylindolo[3,2-b]carbazole) and AhR inhibitor CH223191 were included for study as positive and negative controls, respectively. […] Results are presented as the mean ± standard error of the mean (SEM) of analysis conducted in duplicate and repeated on three separate occasions.
Background: In a reporter assay the amount or activity of a reporter protein is the signal.
For the compound “3-Chloro-7H-benzo[de]benzo[4,5]imidazo[2,1-a]isoquinolin-7-one (10a) and 4-chloro-7H-benzo[de]benzo[4,5]imidazo[2,1-a]isoquinolin-7-one (10b) [Compound 10]”, the “AhR activation, Fold Reporter Induction” value is 2.7 fold.
To “3-Nitro-7H-benzo[de]benzo[4,5]imidazo[2,1-a]isoquinolin-7-one (11a) and 4-nitro-7H-benzo[de]benzo[4,5]imidazo[2,1-a]isoquinolin-7-one (11b) [Compound 11]” belongs 10.2 fold; to “7-Oxo-7H-benzo[de]benzo[4,5]imidazo[2,1-a]isoquinoline-10-carbonitrile (9a) and 7-oxo-7H-benzo[de]benzo[4,5]imidazo[2,1-a]isoquinoline-11-carbonitrile (9b) [Compound 9]”, 2.5 fold; to “9-Methyl-7H-benzo[de]benzo[4,5]imidazo[2,1-a]isoquinolin-7-one (8a) and 12-methyl-7H-benzo[de]benzo[4,5]imidazo[2,1-a]isoquinolin-7-one (8b) [Compound 8]”, 2.5 fold.
Then “10-Methyl-7H-benzo[de]benzo[4,5]imidazo[2,1-a]isoquinolin-7-one (7a) and 11-methyl-7H-benzo[de]benzo[4,5]imidazo[2,1-a]isoquinolin-7-one (7b) [Compound 7]”, with 2.8 fold; and `Nc1ccccc1N1C(=O)c2cccc3cccc(c23)C1=O` [Compound 2, 2-(2-aminophenyl)-1H-benzo[de]isoquinoline-1,3(2H)-dione], with 1.8 fold.
On to `O=c1c2cccc3cccc(c32)c2nc3ccc(Cl)cc3n12` [Compound 3, 10-Chloro-7H-benzo[de]benzo[4,5]imidazo[2,1-a]isoquinolin-7-one], for which the “AhR activation, Fold Reporter Induction” value was found to be 2.7 fold.
`O=c1c2cccc3cccc(c32)c2nc3cc(Cl)ccc3n12` [Compound 4, 11-Chloro-7H-benzo[de]benzo[4,5]imidazo[2,1-a]isoquinolin-7-one]: the “AhR activation, Fold Reporter Induction” value is listed as 2.9 fold.
Regarding `O=c1c2cccc3cccc(c32)c2nc3ccccc3n12` [Compound 5, 7H-Benzo[de]benzo[4,5]imidazo[2,1-a]isoquinolin-7-one], the “AhR activation, Fold Reporter Induction” value came to 3.1 fold.
Consider `O=c1c2ccccc2cc2[nH]c3ccccc3n12` [Compound 12, Benzo[4,5]imidazo[1,2-b]isoquinolin-11(5H)-one], for which the “AhR activation, Fold Reporter Induction” value came to 1.2 fold.
Consider `O=c1c2cccc3cccc(c4n1Cc1ccccc1N=4)c32` [Compound 13, 7H,9H-benzo[4,5]isoquinolino[1,2-b]quinazolin-7-one], for which the “AhR activation, Fold Reporter Induction” value is 1.8 fold.
Then `O=C(O)c1ccc2c3c1cccc3c(=O)n1c3ccccc3nc21` [Compound 14, reference compound], with 1.5 fold.
